Source: PMC5147771, “High-Resolution Genetics Identifies the Lipid Transfer Protein Sec14p as Target for Antifungal Ergolines” (PLoS Genetics, 2016)
In brackets after ≈: the same amount, converted by molar mass. Read-outs that look alike come from different tables or passages of the source.

How the values were obtained:
[1] = system: FLU-sensitive (DSY4982) and FLU-resistant (BPY22 and BPY17) C. neoformans isolates; format: cell-based
[2] = system: FLU-resistant C. neoformans strain BPY22; experiment: microbe, parasite or virus in culture; format: cell-based; details: for MIC: Cryptococcus neoformans, 48 h

| SMILES | mechanism of inhibition (fungicidal vs fungistatic) [1] | MIC ([2]; read-out: MIC-0) | MIC ([2]; read-out: MIC-2) | activity against FLU-resistant strain (in words) [2] |
| --- | --- | --- | --- | --- |
| CN1C[C@H](C(=O)Nc2cccc(C(F)(F)F)c2)C[C@@H]2c3cccc4c3[C@H](C[C@H]21)CN4C(=O)OC(C)(C)C [NGx03] | fungicidal effect | 32 µg/mL (≈ 62.1 µM) | 16 µg/mL (≈ 31 µM) | – |
| COC(=O)[C@@H]1C[C@@H]2c3cccc4c3[C@H](C[C@H]2N(C)C1)CN4C(=O)OCC(Cl)(Cl)Cl [NGx16] | fungicidal effect | – | – | weaker activity |
| COC(=O)[C@@H]1C[C@@H]2c3c([N+](=O)[O-])ccc4c3[C@H](C[C@H]2N(C)C1)CN4C(=O)OCC(Cl)(Cl)Cl [NGx19] | – | – | – | weaker activity |
